Like-named read-outs stand apart in the source and are kept apart here.
Experiments:
Type in all cases: cell-based
[1] = tested on: HEK293T Gα16gustducin44 cells (that do not express TAS2R46)
Protocol: (§1) At day 0, the HEK293T cell line expressing Gα16-gustducin44 and a TAS2R46 bitter taste receptor formed as described in examples 2b or 2c was seeded in antibiotic-free growth medium (standard DMEM with 10% (v/v) heat-inactivated fetal bovine serum, 2 mM L-glutamine[…]) into black wall/clear bottom 96-well plates, coated with poly(ethylenimine) (0.005% v/v) at a concentration of 15,000 cells per well and incubated for 48 hours in humidified atmosphere (37° C., 5% CO2).
(§2) At the time of the assay, the growth medium was discarded and the cells were in humidified atmosphere (37° C., 5% CO2) for 1 hour with 50 μl of loading buffer consisting of 1.5 μM Fluo-4 AM and […] probenicid (Sigma-Aldrich, St. Louis, Mo., US) in DMEM.
(§3) Afterwards, the 96-well plate was washed 5 times with 100 μl of assay buffer (130 mM NaCl, 5 mM KCl, 10 mM HEPES, 2 mM CaCl2, and 5 mM dextrose, pH 7.4) per well, using an automated plate washer (BioTek). The plate was further incubated for 30 minutes at room temperature in the dark to allow for complete de-esterification of the Fluo-4. Afterwards the plate was washed 5 times with 100 μl of assay buffer per well, and reconstituted with 100 μl of assay buffer per well.
(§4) For assay reading, the plate was placed in a Fluorometric Imaging Plate Reader (FLIPR) (FLIPR-TETRA™, Molecular Devices, Sunnyvale, Calif., US), and receptor activation was initiated by addition of 20 μl of a tenfold concentrated agonist stock solution (to give the desired agonist end concentration when added to the 180 microliter assay buffer volume), which was prepared in assay buffer.
(§5) Fluorescence was continuously monitored for 20 seconds to give a signal baseline (averaged to give F0) prior to agonist addition and for 120 seconds after agonist addition. The change in signal divided by F0 gives ΔF/F0 indicated in the table, with ΔF being the maximum signal occurring within the 120 seconds minus the minimum signal (occurring within the 120 seconds after agonist addition.
(§6) The obtained calcium signals were corrected for the response of cells expressing only the G Protein α subunit (Gα16-gustducin44) and normalized to the fluorescence of cells prior to the stimulus using ΔF/F0 (Fmax−Fmin/F0).

[2] = tested on: more than 15 human TAS2Rs; test: Activation of other human TAS2Rs; conditions: more than 15 human TAS2Rs tested
human TAS2R46 [3] = biological target: T1, human TAS2R46 (Homo sapiens, UniProt P59540); test: Fluo-4 calcium assay, HEK293T/Gα16-gustducin44 cells transiently expressing TAS2R46
T1 construct: RSS tag (first 45 amino acids of rat somatostatin receptor subtype 3, plus EcoRI site residues) (N); expressed in transfected cells
T1 sequence (P59540 with tags, fused parts or gaps): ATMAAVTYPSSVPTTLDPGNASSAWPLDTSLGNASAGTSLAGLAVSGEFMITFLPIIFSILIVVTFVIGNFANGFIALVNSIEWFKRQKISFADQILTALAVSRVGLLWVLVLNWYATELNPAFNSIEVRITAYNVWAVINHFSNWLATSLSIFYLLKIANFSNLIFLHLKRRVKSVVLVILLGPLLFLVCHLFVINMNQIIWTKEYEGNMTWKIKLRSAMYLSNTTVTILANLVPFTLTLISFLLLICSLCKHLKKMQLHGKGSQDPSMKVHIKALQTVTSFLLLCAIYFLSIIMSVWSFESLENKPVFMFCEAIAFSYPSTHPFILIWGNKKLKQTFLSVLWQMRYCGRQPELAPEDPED
Protocol: In a second tube, 0.3 μl of Lipofectamine 2000 was diluted in 12.5 μl of DMEM and incubated for 5 min at room temperature. After the 5 min, both solutions were mixed and incubated for 20 min at RT. […] This mixture was then replaced with an antibiotic-free, serum-containing DMEM. […]
as §4
Fluorescence was continuously monitored for 20 seconds to give a signal baseline (averaged to give F0) prior to agonist addition and for 120 seconds after agonist addition. […]
as §6

human TAS2R46 [4] = biological target: T1, human TAS2R46
Protocol: as §1, §2, §3, §4, §5, §6

Structure (SMILES): O=C1C[C@@H]2OCC=C3CN4CC[C@]56c7ccccc7N1[C@H]5[C@H]2[C@H]3C[C@H]46 [strychnine]
- Neg. Control ΔF/F0 ([1]; strychnine 0.977 μM, cells without TAS2R46): 0.060
- Neg. Control ΔF/F0 ([1]; strychnine 1.953 μM, cells without TAS2R46): 0.065
- Neg. Control ΔF/F0 ([1]; strychnine 3.906 μM, cells without TAS2R46): 0.071
- Neg. Control ΔF/F0 ([1]; strychnine 7.813 μM, cells without TAS2R46): 0.070
- Neg. Control ΔF/F0 ([1]; strychnine 15.63 μM, cells without TAS2R46): 0.063
- Neg. Control ΔF/F0 ([1]; strychnine 31.25 μM, cells without TAS2R46): 0.088
- Neg. Control ΔF/F0 ([1]; strychnine 62.50 μM, cells without TAS2R46): 0.091
- Neg. Control ΔF/F0 ([1]; strychnine 125.0 μM, cells without TAS2R46): 0.088
- Neg. Control ΔF/F0 ([1]; strychnine 250.0 μM, cells without TAS2R46): 0.181

Structure (SMILES): COc1ccc2c(c1)[C@]13CCCC[C@@H]1[C@H](C2)N(C)CC3 [dextromethorphan]
- activation of other human TAS2Rs (in words) [2]: not to be activated
- calcium signaling upon addition of agonist (in words) (human TAS2R46 [3]): significant concentration-dependent increase in calcium signaling
- calcium signaling upon addition of agonist (in words) (human TAS2R46 [4]; cells stably expressing human TAS2R46): significant increase in calcium signaling
- EC50 (human TAS2R46 [4]; stable cell line, nonlinear regression of ΔF/F0, read-out: calculated EC50 value for TAS2R46): 31 µM
- Neg. Control ΔF/F0 ([1]; dextromethorphan 0.254 μM, cells expressing only Gα16gustducin44): 0.050
- Neg. Control ΔF/F0 ([1]; dextromethorphan 0.508 μM, cells expressing only Gα16gustducin44): 0.044
- Neg. Control ΔF/F0 ([1]; dextromethorphan 1.016 μM, cells expressing only Gα16gustducin44): 0.053
- Neg. Control ΔF/F0 ([1]; dextromethorphan 2.031 μM, cells expressing only Gα16gustducin44): 0.038
- Neg. Control ΔF/F0 ([1]; dextromethorphan 4.063 μM, cells expressing only Gα16gustducin44): 0.041
- Neg. Control ΔF/F0 ([1]; dextromethorphan 8.125 μM, cells expressing only Gα16gustducin44): 0.044
- Neg. Control ΔF/F0 ([1]; dextromethorphan 16.250 μM, cells expressing only Gα16gustducin44): 0.067
- Neg. Control ΔF/F0 ([1]; dextromethorphan 65.000 μM, cells expressing only Gα16gustducin44): 0.312
- change in signal in the negative control (in words) ([1]; host cells expressing only Gα16-gustducin44): No significant change

From US8603762B2 (priority 2008, dated 2013)
